Measurements reported in ChEMBL document CHEMBL1201862, “PubChem BioAssay data set” (2004).
The source made the active and inactive calls.

Key:
Large T antigen = Large T antigen (Simian virus 40, UniProt P03070); type: functional, Betapolyomavirus macacae;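 further: Confirmatory-stage PubChem screen for compounds that inhibit SV40 T antigen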
Streptokinase A = biological target: T1, Streptokinase A (Streptococcus pyogenes serotype M1, UniProt P10520); assay: viability-normalized secreted streptokinase activity reduction – plasminogen activation absorbance, OD405, dose response (AID 1914); type: functional, Streptococcus pyogenes M1 GAS;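 further: secreted streptokinase activity via plasminogen activation per viability signal from cell pellet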
T1 sequence (P10520 whole entry): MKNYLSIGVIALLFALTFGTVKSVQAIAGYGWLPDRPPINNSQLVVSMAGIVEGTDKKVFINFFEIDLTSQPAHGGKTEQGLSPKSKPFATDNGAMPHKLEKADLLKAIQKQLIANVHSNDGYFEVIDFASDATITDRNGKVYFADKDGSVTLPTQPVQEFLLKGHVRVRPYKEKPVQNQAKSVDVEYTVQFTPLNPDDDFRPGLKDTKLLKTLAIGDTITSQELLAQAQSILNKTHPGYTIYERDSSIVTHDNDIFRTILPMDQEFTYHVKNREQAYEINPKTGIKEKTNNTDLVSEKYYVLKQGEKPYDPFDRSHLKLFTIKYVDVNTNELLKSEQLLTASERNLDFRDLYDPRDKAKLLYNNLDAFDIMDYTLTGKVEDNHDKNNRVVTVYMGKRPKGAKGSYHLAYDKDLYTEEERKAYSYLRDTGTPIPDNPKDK

Cytochrome P450 2C9 = Cytochrome P450 2C9 (Homo sapiens, UniProt P11712)
Cytochrome P450 2C9, sequence (P11712 whole entry): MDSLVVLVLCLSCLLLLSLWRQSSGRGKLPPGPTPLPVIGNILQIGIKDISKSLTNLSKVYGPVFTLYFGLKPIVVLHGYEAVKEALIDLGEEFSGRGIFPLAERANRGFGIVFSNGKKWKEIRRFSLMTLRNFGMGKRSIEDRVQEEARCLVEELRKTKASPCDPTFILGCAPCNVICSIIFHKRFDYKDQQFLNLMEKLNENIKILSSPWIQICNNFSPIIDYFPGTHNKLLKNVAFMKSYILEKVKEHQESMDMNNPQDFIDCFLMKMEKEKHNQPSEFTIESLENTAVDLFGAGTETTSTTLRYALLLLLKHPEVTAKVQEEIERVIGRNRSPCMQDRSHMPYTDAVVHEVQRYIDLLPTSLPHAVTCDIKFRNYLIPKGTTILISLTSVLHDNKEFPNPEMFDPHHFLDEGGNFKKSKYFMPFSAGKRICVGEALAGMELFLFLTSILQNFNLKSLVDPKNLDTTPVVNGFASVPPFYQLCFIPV

[1] = tested on: Streptococcus sp. 'group A'; assay: Streptococcus pyogenes SK(-)GAS viability under kanamycin – luminescence, BacTiterGlo, confirmation, counter-screen for streptokinase expression inhibitor project, dose response (AID 1900); type: functional, organism-based
Streptococcus = assay: GAS UMAA2166 growth inhibition – luminescence, BacTiterGlo, counter-screen for streptokinase expression inhibitor project, dose response (AID 1915); type: functional, organism-based;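 further: potency for reduction of bacterial viability or growth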
cells = type: functional
[2] = biological target: FAD-linked sulfhydryl oxidase ALR (Homo sapiens, UniProt P55789); assay: ALR-catalysed DTT oxidation blockers – biochemical, H2O2 detection, luminescence, cherry-pick, dose response (AID 493248)
FAD-linked sulfhydryl oxidase ALR, sequence (P55789 whole entry): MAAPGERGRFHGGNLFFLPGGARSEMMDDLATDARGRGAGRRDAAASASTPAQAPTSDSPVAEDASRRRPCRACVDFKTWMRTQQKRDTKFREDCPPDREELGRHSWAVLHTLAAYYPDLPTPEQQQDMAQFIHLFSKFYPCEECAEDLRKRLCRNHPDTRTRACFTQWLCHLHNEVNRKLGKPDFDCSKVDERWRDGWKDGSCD

[3] = reduction of Shn3 3'UTR-driven luciferase in osteoblasts – cell-based, Clone20 osteoblasts, firefly luciferase, cherry-picked, dose response (AID 624132); type: functional;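 further: firefly luciferase luminescence from reporter carrying the Shn3 3'UTR in osteoblasts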
[4] = NIH3T3 cell viability loss – ATP luminescence, mouse fibroblasts, counter-screen, dose response (AID 2010); type: functional, cell-based;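 further: cells exposed to compound for about 90 hours before reading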
[5] = Trypanosoma cruzi growth suppression in host cells – NIH3T3 host cells, beta-gal luminescence, confirmation (AID 2044); type: functional, cell-based;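 further: intracellular parasites grown in NIH/3T3 mouse fibroblasts as host cells; luminescent beta-galactosidase reporter signal from transgenic T. cruzi replicating inside host cells; inhibitors lower the luminescence signal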
[6] = HEK-293T viability loss after treatment – luminescence, T-cell screen hits, cytotoxicity control for TCR NF-kB inhibitor project, dose response (AID 489026); type: functional, cell-based;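 further: cells exposed to compound about 14 hours before the viability readout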
[7] = loss of viability in HepG2 cells – cell-based, CellTiter-Glo, cherry-picked, cytotoxicity control for Shn3 inhibitor project, dose response (AID 624134); type: functional
[8] = non-specific 3'UTR reporter inhibition in Clone20-Shn3RL – cell-based, Renilla luciferase, cherry-picked, counter-screen for Shn3 inhibitor project, dose response (AID 624133); type: functional
[9] = Luminescence Cell-Based Dose Confirmation HTS to Identify Inhibitors of Platelet Dense Granule Release. [Related pubchem assays: 1663 (Primary HTS), 1678 (Summary of Project)]; type: functional
Protein RecA = biological target: T2, Protein RecA (Mycobacterium tuberculosis, UniProt P9WHJ3); assay: Fluorescence Cell-Free Homogeneous Dose Retest to Identify Inhibitors of RecA-Intein Splicing Activity. [Related pubchem assays (depositor defined):AID2097, AID2223, AID489010, AID492950]; type: functional
T2 sequence (P9WHJ3 whole entry): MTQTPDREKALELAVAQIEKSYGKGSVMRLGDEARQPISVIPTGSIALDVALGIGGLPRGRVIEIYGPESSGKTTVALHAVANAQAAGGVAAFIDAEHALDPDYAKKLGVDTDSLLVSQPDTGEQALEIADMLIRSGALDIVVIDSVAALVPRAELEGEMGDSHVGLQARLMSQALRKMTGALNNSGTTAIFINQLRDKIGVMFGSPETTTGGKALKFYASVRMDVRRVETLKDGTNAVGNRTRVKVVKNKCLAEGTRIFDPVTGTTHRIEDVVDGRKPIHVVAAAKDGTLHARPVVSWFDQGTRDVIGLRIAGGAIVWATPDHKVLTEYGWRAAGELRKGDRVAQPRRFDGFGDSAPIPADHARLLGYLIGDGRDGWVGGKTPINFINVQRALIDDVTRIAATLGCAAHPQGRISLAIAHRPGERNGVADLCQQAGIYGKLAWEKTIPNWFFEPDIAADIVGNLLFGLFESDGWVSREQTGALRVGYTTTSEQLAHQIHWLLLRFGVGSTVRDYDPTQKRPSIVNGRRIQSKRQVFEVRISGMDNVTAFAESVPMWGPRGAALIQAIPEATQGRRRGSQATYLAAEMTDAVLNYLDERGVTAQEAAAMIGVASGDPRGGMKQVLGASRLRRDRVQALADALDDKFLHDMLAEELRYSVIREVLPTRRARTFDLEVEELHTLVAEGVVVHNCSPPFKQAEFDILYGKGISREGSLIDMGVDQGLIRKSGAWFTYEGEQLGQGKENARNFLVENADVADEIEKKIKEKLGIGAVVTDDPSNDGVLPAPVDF

[10] = biological target: T3, Replicative DNA helicase DnaB (Mycobacterium tuberculosis, UniProt P9WMR3); assay: DnaB intein splicing inhibitors, dose response, biochemical, cell-free fluorescence (AID 449749); type: functional
T3 sequence (P9WMR3 whole entry): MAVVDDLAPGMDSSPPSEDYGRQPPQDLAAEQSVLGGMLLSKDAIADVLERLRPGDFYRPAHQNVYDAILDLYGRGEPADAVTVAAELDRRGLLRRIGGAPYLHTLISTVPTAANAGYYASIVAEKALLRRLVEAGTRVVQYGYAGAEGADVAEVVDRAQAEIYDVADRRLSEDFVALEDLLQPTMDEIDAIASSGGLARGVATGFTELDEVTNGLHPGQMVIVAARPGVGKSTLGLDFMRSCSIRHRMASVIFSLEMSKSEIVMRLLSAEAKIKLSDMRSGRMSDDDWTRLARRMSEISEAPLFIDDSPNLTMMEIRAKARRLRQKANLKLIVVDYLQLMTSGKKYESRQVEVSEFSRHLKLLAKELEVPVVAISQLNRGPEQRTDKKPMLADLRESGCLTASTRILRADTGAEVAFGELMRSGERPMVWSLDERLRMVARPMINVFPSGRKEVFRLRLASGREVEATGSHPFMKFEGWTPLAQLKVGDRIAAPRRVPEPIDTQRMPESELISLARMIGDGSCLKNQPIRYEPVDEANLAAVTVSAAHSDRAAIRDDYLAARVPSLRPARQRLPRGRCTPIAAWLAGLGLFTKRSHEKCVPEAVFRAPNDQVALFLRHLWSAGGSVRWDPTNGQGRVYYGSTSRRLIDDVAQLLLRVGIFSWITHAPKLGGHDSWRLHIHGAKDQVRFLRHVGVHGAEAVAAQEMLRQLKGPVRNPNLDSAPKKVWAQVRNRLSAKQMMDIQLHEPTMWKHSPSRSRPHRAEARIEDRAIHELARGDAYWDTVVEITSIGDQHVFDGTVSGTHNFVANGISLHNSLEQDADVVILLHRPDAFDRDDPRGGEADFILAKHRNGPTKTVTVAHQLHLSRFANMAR

[11] = biological target: Luciferin 4-monooxygenase (Photinus pyralis, UniProt P08659); assay: inhibition of purified Photinus pyralis luciferase – biochemical, luminescence, dose response (AID 1891)
Luciferin 4-monooxygenase, sequence (P08659 whole entry): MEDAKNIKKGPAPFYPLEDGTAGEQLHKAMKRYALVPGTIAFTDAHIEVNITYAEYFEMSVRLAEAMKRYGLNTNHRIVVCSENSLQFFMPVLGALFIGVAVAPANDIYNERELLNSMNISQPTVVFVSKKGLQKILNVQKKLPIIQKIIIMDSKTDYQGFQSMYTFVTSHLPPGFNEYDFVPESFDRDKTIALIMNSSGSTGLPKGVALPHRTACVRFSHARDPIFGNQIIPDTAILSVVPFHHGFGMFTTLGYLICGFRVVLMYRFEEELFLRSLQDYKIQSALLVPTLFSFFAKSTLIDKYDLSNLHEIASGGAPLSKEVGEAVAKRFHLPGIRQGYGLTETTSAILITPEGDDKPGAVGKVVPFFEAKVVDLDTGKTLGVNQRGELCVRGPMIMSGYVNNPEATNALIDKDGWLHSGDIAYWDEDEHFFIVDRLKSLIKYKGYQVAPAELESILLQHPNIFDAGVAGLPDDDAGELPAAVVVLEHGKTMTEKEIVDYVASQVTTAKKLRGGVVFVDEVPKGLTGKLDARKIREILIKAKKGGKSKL

INS1 = assay: INS-1E survival protection against cytokine death – cell-based, luminescence, retest, dose response (AID 449756); type: functional; conditions: Rattus norvegicus;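 further: cell death triggered by IL-1 beta plus TNF-alpha plus IFN-gamma mixture; protective hits raise ATP signal compared with cytokine alone wells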
Cytochrome P450 2C19 = Cytochrome P450 2C19 (Homo sapiens, UniProt P33261); assay: Cytochrome panel assay with activity outcomes. Panel member name: p450-cyp2c19 Compounds with AC50 equal or less than 10 uM are considered active; type: functional; conditions: read-out: AC50
Cytochrome P450 2C19, sequence (P33261 whole entry): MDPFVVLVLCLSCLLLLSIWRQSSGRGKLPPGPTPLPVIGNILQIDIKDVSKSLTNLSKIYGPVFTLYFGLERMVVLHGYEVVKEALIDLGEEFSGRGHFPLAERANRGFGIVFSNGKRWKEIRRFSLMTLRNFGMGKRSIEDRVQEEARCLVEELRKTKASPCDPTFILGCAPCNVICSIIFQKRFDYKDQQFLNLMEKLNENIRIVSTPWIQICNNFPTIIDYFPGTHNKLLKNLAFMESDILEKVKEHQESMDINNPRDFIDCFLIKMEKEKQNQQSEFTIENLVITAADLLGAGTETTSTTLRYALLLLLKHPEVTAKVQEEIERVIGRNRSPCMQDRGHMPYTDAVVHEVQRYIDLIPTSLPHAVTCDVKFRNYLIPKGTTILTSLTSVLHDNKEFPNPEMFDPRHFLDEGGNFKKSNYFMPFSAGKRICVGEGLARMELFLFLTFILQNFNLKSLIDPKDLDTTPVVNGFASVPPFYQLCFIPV

Cytochrome P450 3A4 = Cytochrome P450 3A4 (Homo sapiens, UniProt P08684);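 further: CYP3A4 tested as one member of a cytochrome P450 panel screen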
Cytochrome P450 3A4, sequence (P08684 whole entry): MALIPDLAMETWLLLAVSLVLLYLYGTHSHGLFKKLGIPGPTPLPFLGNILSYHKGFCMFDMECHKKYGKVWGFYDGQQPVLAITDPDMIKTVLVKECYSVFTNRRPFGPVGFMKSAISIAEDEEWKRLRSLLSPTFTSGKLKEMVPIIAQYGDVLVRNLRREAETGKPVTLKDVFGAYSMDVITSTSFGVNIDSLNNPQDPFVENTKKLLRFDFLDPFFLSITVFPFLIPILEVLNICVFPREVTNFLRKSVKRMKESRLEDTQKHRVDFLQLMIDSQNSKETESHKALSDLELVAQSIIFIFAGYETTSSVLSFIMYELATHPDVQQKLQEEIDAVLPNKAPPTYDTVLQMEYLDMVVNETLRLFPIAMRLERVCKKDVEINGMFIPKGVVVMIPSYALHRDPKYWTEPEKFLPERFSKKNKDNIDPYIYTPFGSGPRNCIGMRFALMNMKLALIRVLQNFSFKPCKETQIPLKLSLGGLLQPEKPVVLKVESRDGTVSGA

Leucine aminopeptidase = biological target: T4, Leucine aminopeptidase (Plasmodium falciparum 3D7, UniProt Q8IL11); assay: P. falciparum M17LAP inhibitors, primary screen, biochemical, fluorogenic H-Leu-NHMec substrate, 1536-well (AID 1619); type: functional
T4 sequence (Q8IL11 whole entry): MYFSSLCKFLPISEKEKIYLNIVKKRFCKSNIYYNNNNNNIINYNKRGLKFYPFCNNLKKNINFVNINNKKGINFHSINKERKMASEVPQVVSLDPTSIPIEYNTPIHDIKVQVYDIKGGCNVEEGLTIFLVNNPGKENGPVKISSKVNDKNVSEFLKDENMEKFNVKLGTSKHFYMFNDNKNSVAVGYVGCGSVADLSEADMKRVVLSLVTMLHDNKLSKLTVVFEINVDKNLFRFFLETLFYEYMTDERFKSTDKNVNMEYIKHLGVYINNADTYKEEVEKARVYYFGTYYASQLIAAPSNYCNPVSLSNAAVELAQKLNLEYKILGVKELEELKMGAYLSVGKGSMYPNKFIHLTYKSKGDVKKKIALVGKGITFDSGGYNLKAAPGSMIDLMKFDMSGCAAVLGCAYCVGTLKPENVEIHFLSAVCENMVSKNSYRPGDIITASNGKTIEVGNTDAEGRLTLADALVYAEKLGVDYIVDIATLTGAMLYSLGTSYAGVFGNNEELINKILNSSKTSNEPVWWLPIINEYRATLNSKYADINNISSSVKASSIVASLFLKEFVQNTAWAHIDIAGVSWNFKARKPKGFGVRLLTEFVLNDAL

[12] = Luminescence Cell-Based Dose Confirmation HTS to Identify Activators of 5'UTR Stem-Loop Driven Alpha-Synuclein mRNA Translation in H4 Neuroglioblastoma Cells. [Related pubchem assays: 1829 (Project Summary), 1814 (Primary HTS)]; type: functional
H4 = assay: Luminescence Cell-Based Dose Response HTS to Identify Activators of 5'UTR Stem-Loop Driven Prion Protein mRNA Translation in H4 Neuroglioblastoma Cells. [Related pubchem assays: 1829 (Project Summary), 1814 (Primary HTS)]; type: functional; conditions: Homo sapiens
[13] = Luminescence Cell-Based Dose Response HTS to Identify Activators of Luciferase Translation or Activity in H4 […] Cells. [Related pubchem assays: 1829 (Project Summary), 1814 (Primary HTS)]; type: functional

Large T antigen, sequence (P03070 whole entry): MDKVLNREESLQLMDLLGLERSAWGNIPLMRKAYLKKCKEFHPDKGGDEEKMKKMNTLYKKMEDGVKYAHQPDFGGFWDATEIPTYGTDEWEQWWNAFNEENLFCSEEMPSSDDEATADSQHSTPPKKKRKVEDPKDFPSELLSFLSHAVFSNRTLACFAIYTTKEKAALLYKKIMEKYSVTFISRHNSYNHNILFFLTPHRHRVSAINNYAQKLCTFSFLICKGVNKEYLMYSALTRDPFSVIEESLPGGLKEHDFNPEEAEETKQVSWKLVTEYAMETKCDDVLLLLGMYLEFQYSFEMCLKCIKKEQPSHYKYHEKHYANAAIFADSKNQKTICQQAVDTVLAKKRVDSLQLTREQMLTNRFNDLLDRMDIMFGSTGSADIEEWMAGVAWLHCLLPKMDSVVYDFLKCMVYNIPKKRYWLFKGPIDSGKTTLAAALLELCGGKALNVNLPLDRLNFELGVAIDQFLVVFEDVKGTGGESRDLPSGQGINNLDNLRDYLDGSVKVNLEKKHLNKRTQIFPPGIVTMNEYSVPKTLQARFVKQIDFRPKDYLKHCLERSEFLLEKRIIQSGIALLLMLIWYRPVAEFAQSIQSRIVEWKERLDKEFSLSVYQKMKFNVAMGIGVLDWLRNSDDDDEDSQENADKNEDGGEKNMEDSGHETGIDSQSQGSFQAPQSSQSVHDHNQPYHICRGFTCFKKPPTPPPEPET

Nc1nc2ccc(O)cc2s1
IC50 (Large T antigen): 3.5 µM (active)

S=C(NCCSCc1ccc(Cl)cc1Cl)Nc1ccccc1
EC50 (Streptokinase A): > 150 µM (not active) | AC50 (Cytochrome P450 2C9): inconclusive | EC50 [1]: 11.5 µM (active) | EC50 (Streptococcus): 17 µM (active)

O=C(OCC(=O)N1CCN(c2ccccc2)CC1)c1ccc2ccccc2n1
IC50 (cells): 16.3 µM (active)

CCOC(=O)Cn1c(-c2ccccc2)ccc(C#N)c1=O
IC50 (cells): 7.5 µM (active)

CCN(CC)c1ccc(NC(=O)CCNS(=O)(=O)c2ccc3c(c2)CCC(=O)N3)c(C)c1
AC50 [2]: 1.09 µM (active) | IC50 (Large T antigen): 42.6 µM (active)

CC(Oc1ccc(Cl)cc1Cl)c1nc(-c2ccc(NC(=O)c3ccncc3)cc2)no1 (stereo not given)
AC50 [3]: 3.93 µM (active) | EC50 [4]: > 60 µM (not active) | EC50 [5]: 1.46 µM (active) | IC50 [6]: > 80 µM (inactive) | AC50 [7]: 6.83 µM (active) | AC50 [8]: 21.7 µM (active)

CCOC(=O)CNc1c(-c2ccc(O)cc2)nc2ccccn12
IC50 (Large T antigen): 14.7 µM (active)

N#CC1=C2SCN(Cc3ccco3)CN2C(=O)CC1c1c(F)cccc1Cl (stereo not given)
IC50 (Large T antigen): 84.4 µM (active)

C=C(C)C(=O)N1CC2(CC(c3cccc(NC(=O)c4ccccc4)c3)=NO2)C[C@@H]1C(N)=O (stereo not given in full)
AC50 (Cytochrome P450 2C9): inconclusive

COc1ccc(NC(=O)CSc2c3c(nc4cc(Cl)ccc24)CCCC3)cc1OC
EC50 [9]: > 112 µM (not active) | EC50 (Protein RecA): 3.1 µM (active) | AC50 [10]: 8.17 µM (active) | EC50 [11]: > 112 µM (not active)

O=C(OCC#CCSc1nc2ccccc2o1)c1ccco1
IC50 (cells): 10 µM (active)

O=S(=O)(c1cc(F)ccc1F)N1CCN(c2ncnc3ccccc23)CC1
AC50 [3]: 1.85 µM (active) | AC50 (INS1): 2.26 µM (active) | IC50 [6]: 65.1 µM (inactive) | AC50 [7]: 33.6 µM (active) | AC50 [8]: 4.86 µM (active)

O=C(Oc1cccnc1)c1ccc(Cl)c(Cl)c1
IC50 (cells): 1.31 µM (active)

Cc1ccc(NC(=O)CCSc2nnc(Cc3ccccc3)o2)cc1
IC50 (cells): 18.2 µM (active)

O=C(O)c1ccc(-c2ccc(-c3ccccc3)cc2)s1
IC50 [6]: > 80 µM (inactive)

FC(F)(F)C1CCCN(c2nsc3ccccc23)C1 (stereo not given)
IC50 (Large T antigen): 13 µM (active)

CNc1nc(-c2c(C)noc2C)nc2ccccc12
AC50 (Cytochrome P450 2C19): 3.98 µM (inconclusive) | AC50 (Cytochrome P450 3A4): 12.6 µM (inconclusive) | AC50 (Cytochrome P450 2C9): inconclusive

Cc1ccc(-n2c(=O)c3c4c(sc3n3c(S)nnc23)CCC4)cc1
IC50 (Large T antigen): 30.9 µM (active)

COc1cccc2cc(C(=O)CC3(O)C(=O)N(Cc4ccccc4)c4ccccc43)c(=O)oc12 (stereo not given)
AC50 (Cytochrome P450 2C9): inconclusive

CC(C)(C)OC(=O)[C@H]1[C@H](c2ccc([N+](=O)[O-])cc2)C2(C(=O)c3ccccc3C2=O)C2c3ccccc3C=NN21 (stereo not given in full)
IC50 (Leucine aminopeptidase): 2.23 µM (active)

O=C1c2ccccc2-c2c1nc1c([n+]2[O-])CCCC1
EC50 [12]: 0.262 µM (active) | EC50 (H4): 6.95 µM (active) | EC50 (Protein RecA): 20.1 µM (active) | AC50 [10]: 21 µM (active) | EC50 [13]: 4.63 µM (active)

Nc1c2c(nc3ccccc13)CCC[C@H]2O
AC50 (Cytochrome P450 2C9): inconclusive

Oc1oc(-c2ccco2)nc1/C=N/c1cccc(Cl)c1
IC50 (cells): > 50 µM (active)
